Results on 21 compounds are retold here after patent publication US9434743B2, “Indazole derivatives” (TAKEDA PHARMACEUTICAL COMPANY LIMITED, priority 2012, dated 2016).

For assay [1] the following is noted: cited from earlier work.
For assay [2], the target named is T1, human MetAP2 enzyme (Homo sapiens, UniProt P50579). The experiment in a line: MetAP2 enzyme assay, enzyme complexed with cobalt ions. The conditions noted are these: MetAP2 Co pIC50, MetAP2 enzyme complexed with cobalt ions; Met-AMC substrate at Km.
T1 sequence (P50579 whole entry): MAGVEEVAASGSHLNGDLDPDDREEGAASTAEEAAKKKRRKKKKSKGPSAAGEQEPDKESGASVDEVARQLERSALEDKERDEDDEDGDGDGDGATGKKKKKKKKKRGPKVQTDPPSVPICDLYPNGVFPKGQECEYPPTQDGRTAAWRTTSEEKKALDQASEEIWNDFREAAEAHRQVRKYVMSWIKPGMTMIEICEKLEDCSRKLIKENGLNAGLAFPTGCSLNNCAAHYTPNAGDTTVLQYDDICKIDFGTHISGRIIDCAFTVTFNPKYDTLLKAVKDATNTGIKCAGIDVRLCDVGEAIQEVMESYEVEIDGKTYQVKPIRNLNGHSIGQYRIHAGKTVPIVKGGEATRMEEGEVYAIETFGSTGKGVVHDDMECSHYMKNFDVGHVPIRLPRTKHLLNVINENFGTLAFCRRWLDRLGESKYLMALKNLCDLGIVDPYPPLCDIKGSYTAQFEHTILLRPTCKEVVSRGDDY
Assay [3] deals with T1, human MetAP2 enzyme. The experiment in a line: MetAP2 enzyme assay, enzyme complexed with manganese ions. The conditions noted are these: MetAP2 Mn pIC50, MetAP2 enzyme complexed with manganese ions; Met-AMC substrate at Km.
For the next assay, the system named is angiogenesis. Particulars: cited from earlier work.

`CO[C@@H]1[C@H](OC(=O)/C=C/c2ccc(OCCN(C)C)cc2)CC[C@]2(CO2)[C@H]1[C@@]1(C)O[C@@H]1CC=C(C)C` [CKD-732]: the “food intake, body weight, fat mass, size of adipocytes” value in assay [1] (genetically and diet-induced obese mice) is “decrease food intake, body weight, fat mass, and the size of adipocytes”.
For the compound `COc1nc(C(=O)NCCO)ccc1-c1cc(C(F)(F)F)cc2[nH]ncc12` [Example 394, N-(2-hydroxyethyl)-6-methoxy-5-(6-(trifluoromethyl)-1H-indazol-4-yl)picolinamide], the results for the IC50 on human MetAP2 enzyme [2] and against human MetAP2 enzyme [3] were 31.6 nM and 5.01 nM, respectively.
The matching figures for `COc1nc(C(=O)N2CC(O)C2)ccc1-c1cc(C(F)(F)F)cc2[nH]ncc12` [Example 395, (3-hydroxyazetidin-1-yl)(6-methoxy-5-(6-(trifluoromethyl)-1H-indazol-4-yl)pyridin-2-yl)methanone]: 31.6 nM and 6.31 nM.
The matching figures for `COc1nc(C#N)ccc1-c1cc(C(F)(F)F)cc2[nH]ncc12` [Example 396, 6-methoxy-5-(6-(trifluoromethyl)-1H-indazol-4-yl)picolinonitrile]: 126 nM and 12.6 nM.
The matching figures for `CNc1nc(C)c(-c2cc(C(F)(F)F)cc3[nH]ncc23)cc1C(=O)N1CC(O)C1` [Example 397, (3-hydroxyazetidin-1-yl)(6-methyl-2-(methylamino)-5-(6-(trifluoromethyl)-1H-indazol-4-yl)pyridin-3-yl)methanone]: 15.8 nM and 3.98 nM.
With `Cc1c(-c2cc(C(F)(F)F)cc3[nH]ncc23)ccc2nnnn12` [Example 398, 5-methyl-6-(6-(trifluoromethyl)-1H-indazol-4-yl)tetrazolo[1,5-a]pyridine], the IC50 (usually the concentration needed to halve the response being measured) was 126 nM against human MetAP2 enzyme [2] and 3.98 nM against human MetAP2 enzyme [3].
Take `Cc1nc(N2CCOCC2)ccc1-c1cc(C(F)(F)F)cc2[nH]ncc12` [Example 399, 4-(6-methyl-5-(6-(trifluoromethyl)-1H-indazol-4-yl)pyridin-2-yl)morpholine]: the IC50 against human MetAP2 enzyme [2] is 25.1 nM; against human MetAP2 enzyme [3] it was 7.94 nM.
On the same counts, the results for `Cc1nc(N2CCN(C)CC2)ccc1-c1cc(C(F)(F)F)cc2[nH]ncc12` [Example 400, 4-(2-methyl-6-(4-methylpiperazin-1-yl)pyridin-3-yl)-6-(trifluoromethyl)-1H-indazole] are 12.6 nM and 7.94 nM.
Regarding `Cc1c(C(=O)N2CCN(C)CC2)cc(-c2cc(C(F)(F)F)cc3[nH]ncc23)c(=O)n1C` [Example 401, 1,6-dimethyl-5-(4-methylpiperazine-1-carbonyl)-3-(6-(trifluoromethyl)-1H-indazol-4-yl)pyridin-2(1H)-one], the values for the IC50 on human MetAP2 enzyme [2] and on human MetAP2 enzyme [3] were 200 nM and 6.31 nM, respectively.
The matching figures for `Cc1c(-c2cc(C(F)(F)F)cc3[nH]ncc23)ccc(=O)n1C` [Example 402, 1,6-dimethyl-5-(6-(trifluoromethyl)-1H-indazol-4-yl)pyridin-2(1H)-one]: 39.8 nM and 3.16 nM.
On to `Cc1cc(=O)n(C)cc1-c1cc(C(F)(F)F)cc2[nH]ncc12` [Example 403, 1,4-dimethyl-5-(6-(trifluoromethyl)-1H-indazol-4-yl)pyridin-2(1H)-one], for which the IC50 was 63.1 nM against human MetAP2 enzyme [2] and 10 nM against human MetAP2 enzyme [3].
`Cc1c(C(=O)NCCO)cc(-c2cc(C(F)(F)F)cc3[nH]ncc23)c(=O)n1C` [Example 404, N-(2-hydroxyethyl)-1,2-dimethyl-6-oxo-5-(6-(trifluoromethyl)-1H-indazol-4-yl)-1,6-dihydropyridine-3-carboxamide]: the IC50 against human MetAP2 enzyme [2] is 251 nM; against human MetAP2 enzyme [3] it was 12.6 nM.
Turning to `Cc1c(-c2cc(C(F)(F)F)cc3[nH]ncc23)ccc(=O)n1CC#N` [Example 405, 2-(6-methyl-2-oxo-5-(6-(trifluoromethyl)-1H-indazol-4-yl)pyridin-1(2H)-yl)acetonitrile], the results for the IC50 on human MetAP2 enzyme [2] and on human MetAP2 enzyme [3] were 79.4 nM and 10 nM, respectively.
Turning to `Cc1cc(=O)n(Cc2ccccn2)cc1-c1cc(C(F)(F)F)cc2[nH]ncc12` [Example 406, 4-methyl-1-(pyridin-2-ylmethyl)-5-(6-(trifluoromethyl)-1H-indazol-4-yl)pyridin-2(1H)-one], the half-inhibitory concentration (IC50) was 79.4 nM against human MetAP2 enzyme [2] and 15.8 nM on human MetAP2 enzyme [3].
The matching figures for `Cc1c(-c2cc(C(F)(F)F)cc3[nH]ncc23)ccc(=O)n1Cc1ccccn1` [Example 407, 6-methyl-1-(pyridin-2-ylmethyl)-5-(6-(trifluoromethyl)-1H-indazol-4-yl)pyridin-2(1H)-one]: 79.4 nM and 12.6 nM.
The matching figures for `Cc1cc(=O)n(CC#N)cc1-c1cc(C(F)(F)F)cc2[nH]ncc12` [Example 408, 2-(4-methyl-2-oxo-5-(6-(trifluoromethyl)-1H-indazol-4-yl)pyridin-1(2H)-yl)acetonitrile]: 79.4 nM and 3.98 nM.
In the case of `Cc1nc(CCS(C)(=O)=O)ccc1-c1cc(C(F)(F)F)cc2[nH]ncc12` [Example 409, 4-(2-methyl-6-(2-(methylsulfonyl)ethyl)pyridin-3-yl)-6-(trifluoromethyl)-1H-indazole], the IC50 at human MetAP2 enzyme [2] was 15.8 nM; against human MetAP2 enzyme [3] it was 3.98 nM.
`Cc1nn(Cc2cnn(C)c2)c(CO)c1-c1cc(C(F)(F)F)cc2[nH]ncc12` [Example 410, (3-methyl-1-((1-methyl-1H-pyrazol-4-yl)methyl)-4-(6-(trifluoromethyl)-1H-indazol-4-yl)-1H-pyrazol-5-yl)methanol]: the results for the IC50 against human MetAP2 enzyme [2] and against human MetAP2 enzyme [3] were 15.8 nM and 6.31 nM, respectively.
The matching figures for `Cc1nc(N2CCN[C@H](C)C2)ccc1-c1cc(C(F)(F)F)cc2[nH]ncc12` [Example 414, (R)-4-(2-methyl-6-(3-methylpiperazin-1-yl)pyridin-3-yl)-6-(trifluoromethyl)-1H-indazole]: 10 nM and 3.98 nM.
The matching figures for `Cc1nc(N2C[C@H]3C[C@H]3C2C(N)=O)ncc1-c1cc(C(F)(F)F)cc2[nH]ncc12` (stereo partly drawn) [Example 415, (1R,5S)-3-(4-methyl-5-(6-(trifluoromethyl)-1H-indazol-4-yl)pyrimidin-2-yl)-3-azabicyclo[3.1.0]hexane-2-carboxamide]: 10 nM and 7.94 nM.
In the case of `CO[C@@H]1[C@H](OC(=O)/C=C/C=C/C=C/C=C/C(=O)O)CC[C@]2(CO2)[C@H]1[C@@]1(C)O[C@@H]1CC=C(C)C` [fumagillin], the “effect on diet-induced obesity” value in assay [1] (diet-induced obesity in mice) is recorded as “impair diet-induced obesity”. The inhibition of angiogenesis result with angiogenesis is “inhibit angiogenesis”.
